What was measured:
ERBB2 (R896C) = ERBB2 (R896C) (Homo sapiens, UniProt P04626, R896C); assay: Reaction Biology kinase activity assay (33P-ATP, HotSpot); format: biochemical; settings: final enzyme concentration 200 nM; 100 μM 33P-ATP; 20 min preincubation, 2 hours at 25° C.
Experimental: (§1) Inhibition of kinase activity was assessed using a kinase activity assay (Anastassiadis, T. et al. Nat Biotechnol 2011 29: 1039-1045). In particular, substrate (poly Glu-Tyr sodium salt (Sigma Aldrich, cat #P7244)) was freshly prepared in reaction buffer (20 mM Hepes (pH 7.5), 10 mM MgCl2, 1 mM EGTA, 0.02% Brij35, 0.02 mg/ml BSA, 0.1 mM Na3VO4, 2 mM DTT, 1% DMSO). EGFR, ERBB2 or ERBB2 mutant kinases were added to the substrate solution and mixed at the final concentrations in Table B1, below. Compounds were dissolved in 100% DMSO and the resulting solutions were added to the kinase reaction mixture. The kinase reaction mixture was incubated with the compounds for 20 minutes at room temperature. 100 μM ^33P-ATP (Specific activity 10 μCi/μl) was then added to initiate the reaction. This mixture was incubated for 2 hours at 25° C.
(§2) Reactions were spotted onto P81 ion exchange filter paper (Whatman). Unbound phosphate was removed by extensive washing of filters in 0.75% phosphoric acid. Radioactivity was detected using a HotSpot, a proprietary technology of Reaction Biology Corporation (Anastassiadis, T. et al., Nat Biotechnol. 2011 29(11):1039-45). Kinase activity data were expressed as the percentage kinase activity remaining in test samples relative to vehicle only (i.e., DMSO only) control reactions. IC50 values and curve fits were obtained using Prism (GraphPad Software), using a nonlinear regression model with a sigmoidal dose response and are shown in Table B1.

EGFR = EGFR (Homo sapiens, UniProt P00533); assay: as above; format: biochemical; settings: final enzyme concentration 3 nM; 100 μM 33P-ATP; 20 min preincubation, 2 hours at 25° C.
Experimental: as §1, §2

ERBB2 (D769H) = ERBB2 (D769H) (Homo sapiens, UniProt P04626, D769H); assay: as above; format: biochemical; settings: final enzyme concentration 150 nM; 100 μM 33P-ATP; 20 min preincubation, 2 hours at 25° C.
Experimental: as §1, §2

ERBB2/HER2 = ERBB2/HER2 (Homo sapiens, UniProt P04626); assay: as above; format: biochemical; settings: final enzyme concentration 50 nM; 100 μM 33P-ATP; 20 min preincubation, 2 hours at 25° C.
Experimental: as §1, §2

ERBB2 (V777_G778insCG) = ERBB2 (V777_G778insCG) (Homo sapiens, UniProt P04626, INS777CG); assay: as above; format: biochemical; settings: final enzyme concentration 100 nM; 100 μM 33P-ATP; 20 min preincubation, 2 hours at 25° C.
Experimental: as §1, §2

[1] = target: T1, BaF3-EGFR-V769 D770insASV (Homo sapiens, UniProt P00533, DUP767-769, cells depend on it); assay: Cell viability assay (CellTiter Glo); format: cell-based, mouse; settings: 72 hours; 3000 cells per well, 96-well plates; read-out: Cell viability IC50, nM, BaF3-EGFR-V769 D770insASV
T1 construct: Ba/F3 cell lines were engineered to express human ERBB2 or EGFR kinases, rendering the cells IL-3 independent
Summary of the method: (§3)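 Murine Ba/F3 cells made IL-3-independent by retroviral human EGFR or ERBB2 were seeded at 3000 or 300 cells per well and exposed to serially diluted compound (DMSO ≤0.1%) for 72 hours at 37° C, 5% CO2. CellTiter Glo luminescence was normalised to DMSO and media-only controls and fitted to a sigmoidal dose-response.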

[2] = target: T2, BaF3 EGFR-D770-N771insSVD (Homo sapiens, UniProt P00533, DUP768-770, cells depend on it); assay: Cell viability assay (CellTiter Glo); format: cell-based, mouse; settings: 72 hours; 3000 cells per well, 96-well plates; read-out: Cell viability IC50, nM, BaF3 EGFR-D770-N771insSVD
T2 construct: Ba/F3 cell lines were engineered to express human ERBB2 or EGFR kinases, rendering the cells IL-3 independent
Summary of the method: as §3

[3] = target: T3, BaF3 EGFR-H773 V774insNPH (Homo sapiens, UniProt P00533, DUP771-773, cells depend on it); assay: Cell viability assay (CellTiter Glo); format: cell-based, mouse; settings: 72 hours; 3000 cells per well, 96-well plates; read-out: Cell viability IC50, nM, BaF3 EGFR-H773 V774insNPH
T3 construct: Ba/F3 cell lines were engineered to express human ERBB2 or EGFR kinases, rendering the cells IL-3 independent
Summary of the method: as §3

ERBB2/HER2, sequence (P04626 23-1255): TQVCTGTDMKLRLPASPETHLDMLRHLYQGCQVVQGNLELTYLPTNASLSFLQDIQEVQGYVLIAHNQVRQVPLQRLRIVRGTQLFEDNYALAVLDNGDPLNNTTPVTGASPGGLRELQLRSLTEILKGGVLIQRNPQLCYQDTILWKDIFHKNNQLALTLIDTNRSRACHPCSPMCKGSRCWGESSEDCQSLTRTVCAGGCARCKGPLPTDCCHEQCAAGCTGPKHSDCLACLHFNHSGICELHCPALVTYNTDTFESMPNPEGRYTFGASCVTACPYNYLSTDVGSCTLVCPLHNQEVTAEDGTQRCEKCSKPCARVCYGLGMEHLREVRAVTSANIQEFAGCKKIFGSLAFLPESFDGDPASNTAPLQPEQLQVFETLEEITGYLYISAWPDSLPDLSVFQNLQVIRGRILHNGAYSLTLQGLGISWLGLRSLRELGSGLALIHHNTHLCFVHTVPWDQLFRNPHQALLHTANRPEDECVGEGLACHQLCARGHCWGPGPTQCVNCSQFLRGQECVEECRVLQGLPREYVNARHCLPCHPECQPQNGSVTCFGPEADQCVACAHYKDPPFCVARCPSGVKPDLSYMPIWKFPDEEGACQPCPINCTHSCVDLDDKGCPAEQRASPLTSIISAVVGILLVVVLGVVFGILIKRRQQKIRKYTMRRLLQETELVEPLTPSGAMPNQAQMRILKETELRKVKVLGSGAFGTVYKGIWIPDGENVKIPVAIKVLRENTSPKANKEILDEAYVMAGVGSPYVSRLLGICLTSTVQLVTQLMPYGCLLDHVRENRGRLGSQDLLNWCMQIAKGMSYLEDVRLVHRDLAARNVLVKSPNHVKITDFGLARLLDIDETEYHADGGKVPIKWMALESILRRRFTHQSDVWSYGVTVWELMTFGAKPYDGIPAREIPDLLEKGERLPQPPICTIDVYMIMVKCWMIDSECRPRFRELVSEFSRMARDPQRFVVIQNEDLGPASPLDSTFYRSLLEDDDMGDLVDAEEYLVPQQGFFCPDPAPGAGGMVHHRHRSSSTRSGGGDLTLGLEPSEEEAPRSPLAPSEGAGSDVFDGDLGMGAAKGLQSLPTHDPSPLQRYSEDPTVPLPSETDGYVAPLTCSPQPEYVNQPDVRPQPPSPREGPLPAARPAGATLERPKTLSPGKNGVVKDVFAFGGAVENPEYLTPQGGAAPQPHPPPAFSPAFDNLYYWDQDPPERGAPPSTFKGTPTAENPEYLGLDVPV
EGFR, sequence (P00533 25-1210): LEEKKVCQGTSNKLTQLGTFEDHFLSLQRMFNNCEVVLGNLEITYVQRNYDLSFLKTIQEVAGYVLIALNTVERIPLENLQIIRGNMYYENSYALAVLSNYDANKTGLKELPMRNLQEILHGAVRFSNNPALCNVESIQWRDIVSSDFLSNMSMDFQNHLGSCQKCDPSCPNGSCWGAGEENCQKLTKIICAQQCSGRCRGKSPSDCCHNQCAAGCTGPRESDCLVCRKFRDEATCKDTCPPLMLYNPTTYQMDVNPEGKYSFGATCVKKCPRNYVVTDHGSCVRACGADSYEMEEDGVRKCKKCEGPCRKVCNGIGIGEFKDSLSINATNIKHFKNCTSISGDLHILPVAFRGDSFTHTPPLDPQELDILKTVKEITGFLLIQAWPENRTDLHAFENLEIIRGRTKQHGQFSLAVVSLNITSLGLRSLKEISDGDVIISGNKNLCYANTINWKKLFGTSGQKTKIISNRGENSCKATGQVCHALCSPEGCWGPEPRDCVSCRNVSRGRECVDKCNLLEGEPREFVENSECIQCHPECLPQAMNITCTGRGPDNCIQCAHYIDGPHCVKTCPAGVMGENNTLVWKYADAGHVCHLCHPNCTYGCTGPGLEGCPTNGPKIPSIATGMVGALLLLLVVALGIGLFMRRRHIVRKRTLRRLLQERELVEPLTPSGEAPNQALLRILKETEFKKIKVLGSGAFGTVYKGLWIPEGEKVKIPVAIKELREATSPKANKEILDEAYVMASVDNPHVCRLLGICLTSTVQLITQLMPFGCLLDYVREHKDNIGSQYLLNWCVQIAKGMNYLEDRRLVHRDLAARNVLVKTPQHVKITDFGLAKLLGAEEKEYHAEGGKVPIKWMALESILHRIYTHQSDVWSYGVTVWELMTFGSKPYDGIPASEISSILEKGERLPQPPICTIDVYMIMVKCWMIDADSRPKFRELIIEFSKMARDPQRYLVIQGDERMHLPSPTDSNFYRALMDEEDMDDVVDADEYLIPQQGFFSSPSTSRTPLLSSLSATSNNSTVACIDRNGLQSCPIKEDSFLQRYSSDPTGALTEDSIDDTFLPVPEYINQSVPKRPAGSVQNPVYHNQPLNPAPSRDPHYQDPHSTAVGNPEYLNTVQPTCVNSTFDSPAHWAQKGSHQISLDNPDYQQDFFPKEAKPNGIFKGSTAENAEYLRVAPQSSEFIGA
ERBB2 (V777_G778insCG), sequence (P04626 with tags, fused parts or gaps INS777CG limits assumed): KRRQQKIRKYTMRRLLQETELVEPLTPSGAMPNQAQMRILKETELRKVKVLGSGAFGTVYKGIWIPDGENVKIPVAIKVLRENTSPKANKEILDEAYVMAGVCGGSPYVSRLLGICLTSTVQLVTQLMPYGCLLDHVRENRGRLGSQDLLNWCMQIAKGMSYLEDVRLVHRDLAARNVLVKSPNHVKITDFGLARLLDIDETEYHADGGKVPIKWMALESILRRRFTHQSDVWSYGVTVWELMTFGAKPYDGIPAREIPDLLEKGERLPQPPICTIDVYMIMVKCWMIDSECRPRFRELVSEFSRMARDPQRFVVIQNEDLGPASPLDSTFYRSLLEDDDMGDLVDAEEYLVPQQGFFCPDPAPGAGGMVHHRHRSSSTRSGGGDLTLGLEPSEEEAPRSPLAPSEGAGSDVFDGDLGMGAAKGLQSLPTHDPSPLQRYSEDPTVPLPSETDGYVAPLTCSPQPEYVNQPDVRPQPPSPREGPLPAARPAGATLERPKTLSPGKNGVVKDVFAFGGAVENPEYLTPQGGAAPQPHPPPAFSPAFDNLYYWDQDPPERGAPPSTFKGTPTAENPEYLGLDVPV
ERBB2 (R896C), sequence (P04626 23-1255 R896C): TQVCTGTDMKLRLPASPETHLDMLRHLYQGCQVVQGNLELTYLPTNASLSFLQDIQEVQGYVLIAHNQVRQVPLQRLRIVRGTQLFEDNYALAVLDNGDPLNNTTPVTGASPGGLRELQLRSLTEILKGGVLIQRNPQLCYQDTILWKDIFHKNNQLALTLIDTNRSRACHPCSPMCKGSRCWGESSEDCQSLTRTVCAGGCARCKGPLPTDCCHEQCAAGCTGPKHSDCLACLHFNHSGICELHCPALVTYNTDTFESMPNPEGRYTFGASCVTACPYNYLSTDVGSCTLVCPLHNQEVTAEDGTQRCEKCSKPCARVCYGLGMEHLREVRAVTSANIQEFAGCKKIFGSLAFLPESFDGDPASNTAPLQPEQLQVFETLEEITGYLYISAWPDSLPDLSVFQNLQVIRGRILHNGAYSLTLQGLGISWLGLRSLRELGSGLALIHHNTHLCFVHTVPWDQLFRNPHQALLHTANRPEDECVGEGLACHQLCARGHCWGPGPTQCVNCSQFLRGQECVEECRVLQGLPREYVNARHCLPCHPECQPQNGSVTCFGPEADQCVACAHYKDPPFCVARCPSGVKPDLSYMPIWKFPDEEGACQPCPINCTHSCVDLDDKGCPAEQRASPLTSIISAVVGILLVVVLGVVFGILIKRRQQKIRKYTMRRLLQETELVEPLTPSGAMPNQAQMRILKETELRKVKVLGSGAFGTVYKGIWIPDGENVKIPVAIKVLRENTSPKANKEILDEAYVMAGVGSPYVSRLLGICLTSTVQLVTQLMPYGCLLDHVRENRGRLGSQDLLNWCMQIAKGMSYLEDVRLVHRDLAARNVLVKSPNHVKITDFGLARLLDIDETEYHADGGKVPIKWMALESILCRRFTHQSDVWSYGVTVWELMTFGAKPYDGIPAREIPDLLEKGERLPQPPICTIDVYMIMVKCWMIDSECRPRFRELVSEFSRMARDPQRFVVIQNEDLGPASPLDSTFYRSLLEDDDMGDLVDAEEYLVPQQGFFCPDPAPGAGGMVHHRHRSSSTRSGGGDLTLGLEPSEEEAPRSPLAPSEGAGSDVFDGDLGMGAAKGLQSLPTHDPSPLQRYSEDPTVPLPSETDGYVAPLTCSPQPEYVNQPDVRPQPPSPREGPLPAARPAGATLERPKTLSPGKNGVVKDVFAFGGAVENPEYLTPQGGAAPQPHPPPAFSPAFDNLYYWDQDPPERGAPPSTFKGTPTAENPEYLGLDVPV

IC50 (ERBB2 (R896C)) [nM]	IC50 (EGFR) [nM]	IC50 (ERBB2 (D769H)) [nM]	IC50 (ERBB2/HER2) [nM]	IC50 (ERBB2 (V777_G778insCG)) [nM]	SMILES	GI50 [1] [nM]	GI50 [2] [nM]	GI50 [3] [nM]
2.95	954	5	3.07	4.43	Cc1cc(Nc2ncnc3ccc(NC4=NC(C)(C)CO4)cc23)ccc1Oc1ccn2ncnc2c1 [Tucatinib, tucatinib, reference compound]	–	–	–
2.29	58	1.04	0.49	0.97	CC#CC(=O)Nc1ccc2ncnc(Nc3ccc(Oc4ccn5ncnc5c4)c(C)c3)c2c1 [Compound 1, N-[4-[(3-methyl-4-[[1,2,4]triazolo[1,5-a]pyridin-7-yloxy]phenyl)amino]quinazolin-6-yl]but-2-ynamide]	861	775	> 1000
